Our source for the MIC values is ChEMBL document CHEMBL3421558, “Structure activity relationship of substituted 1,5-naphthyridine analogs of oxabicyclooctane-linked novel bacterial topoisomerase inhibitors as broad-spectrum antibacterial agents (Part-4)” (Bioorg Med Chem Lett, 2015).

Assay type in all cases: functional
The subject of one assay is Pseudomonas aeruginosa. Kind of assay: Antimicrobial activity against Pseudomonas aeruginosa PAO1 by micro broth dilution or agar based method. Particulars: Pseudomonas aeruginosa, PAO1; read-out: MIC. A general note: Broth dilution looks for growth in wells or tubes with falling amounts of substance.
Another assay concerns Streptococcus pneumoniae. Nature of the assay: Antimicrobial activity against Streptococcus pneumoniae IID553 by micro broth dilution or agar based method. Particulars: Streptococcus pneumoniae, IID553; read-out: MIC.
Assay [1] relates to Staphylococcus aureus. Nature of the assay: Antimicrobial activity against methicillin-resistant Staphylococcus aureus OIT971 by micro broth dilution or agar based method.
A further assay deals with Acinetobacter baumannii. Kind of assay: Antimicrobial activity against Acinetobacter baumannii IID876 by micro broth dilution or agar based method. Particulars: Acinetobacter baumannii, IID876; read-out: MIC.
For a further assay, the system named is Enterococcus faecium. Kind of assay: Antimicrobial activity against VanA expressing vancomycin-resistant Enterococcus faecium by micro broth dilution or agar based method. Particulars: Enterococcus faecium; read-out: MIC.
A further assay relates to Escherichia coli. Kind of assay: Antimicrobial activity against Escherichia coli ATCC 25922 by micro broth dilution or agar based method. Particulars: Escherichia coli, ATCC 25922; read-out: MIC.
Assay [2] concerns Staphylococcus aureus. Kind of assay: Antimicrobial activity against Staphylococcus aureus Smith by micro broth dilution or agar based method. Particulars: Staphylococcus aureus, Smith; read-out: MIC.

Values after ≈ are worked out from the molar mass of the structure shown.

By MIC is commonly meant the lowest concentration that inhibits growth of the organism. As for `COc1cc2nccc(CCC34CCC(NCc5ccc6c(n5)NC(=O)CO6)(CC3)CO4)c2nc1C(=O)O`, the MIC with Pseudomonas aeruginosa, in the assay on Streptococcus pneumoniae, in the assay on Staphylococcus aureus [1], in the assay on Acinetobacter baumannii, in the assay on Enterococcus faecium and with Escherichia coli was 16 µg/mL (≈ 30.8 µM) throughout. Besides, the MIC in the assay on Staphylococcus aureus [2] stood at 16 µg/mL (≈ 30.8 µM).
For `COc1cc2nccc(CCC34CCC(NCc5ccc6c(n5)NC(=O)CO6)(CC3)CO4)c2nc1OC`, the MIC worked out at 8 µg/mL (≈ 15.8 µM) with Pseudomonas aeruginosa; 8 µg/mL (≈ 15.8 µM) in the assay with Streptococcus pneumoniae; 1 µg/mL (≈ 1.98 µM) in the assay with Staphylococcus aureus [1]; 8 µg/mL (≈ 15.8 µM) in the assay on Acinetobacter baumannii; 8 µg/mL (≈ 15.8 µM) in the assay with Enterococcus faecium; 8 µg/mL (≈ 15.8 µM) with Escherichia coli. Also, the minimal inhibitory concentration (MIC) in the assay with Staphylococcus aureus [2] is 2 µg/mL (≈ 3.96 µM).
For the compound `COc1cc(C)c2nccc(CCC34CCC(NCc5ccc6c(n5)NC(=O)CO6)(CC3)CO4)c2n1`, the MIC was 32 µg/mL (≈ 65.4 µM) with Pseudomonas aeruginosa; 1 µg/mL (≈ 2.04 µM) in the assay on Streptococcus pneumoniae; 0.063 µg/mL (≈ 0.129 µM) in the assay with Staphylococcus aureus [1]; 8 µg/mL (≈ 16.3 µM) with Acinetobacter baumannii; 8 µg/mL (≈ 16.3 µM) with Enterococcus faecium; 8 µg/mL (≈ 16.3 µM) in the assay with Escherichia coli. Moreover, the minimal inhibitory concentration (MIC) in the assay on Staphylococcus aureus [2] worked out at 0.125 µg/mL (≈ 0.255 µM).
In the case of `COc1ccc2ncc(CO)c(CCC34CCC(NCc5ccc6c(n5)NC(=O)CO6)(CC3)CO4)c2n1`, the MIC in the assay on Pseudomonas aeruginosa came out at 32 µg/mL (≈ 63.3 µM); in the assay on Streptococcus pneumoniae, 0.5 µg/mL (≈ 0.989 µM); in the assay on Acinetobacter baumannii it was 8 µg/mL (≈ 15.8 µM); in the assay with Enterococcus faecium, 4 µg/mL (≈ 7.91 µM); with Escherichia coli, 16 µg/mL (≈ 31.6 µM); with Staphylococcus aureus [2], 0.5 µg/mL (≈ 0.989 µM).
As for `COc1ccc2ncc(C(F)F)c(CCC34CCC(NCc5ccc6c(n5)NC(=O)CO6)(CC3)CO4)c2n1`, the MIC was 16 µg/mL (≈ 30.4 µM) in the assay on Pseudomonas aeruginosa; 0.12 µg/mL (≈ 0.228 µM) in the assay with Streptococcus pneumoniae; 2 µg/mL (≈ 3.81 µM) in the assay on Acinetobacter baumannii; 1 µg/mL (≈ 1.9 µM) in the assay with Enterococcus faecium; 4 µg/mL (≈ 7.61 µM) in the assay on Escherichia coli; 0.03 µg/mL (≈ 0.0571 µM) in the assay with Staphylococcus aureus [2].
For the compound `COc1nc2c(CCC34CCC(NCc5ccc6c(n5)NC(=O)CO6)(CC3)CO4)ccnc2cc1C#N`, the MIC in the assay on Pseudomonas aeruginosa is 64 µg/mL (≈ 128 µM); in the assay with Streptococcus pneumoniae it was 64 µg/mL (≈ 128 µM); with Staphylococcus aureus [1], 2 µg/mL (≈ 4 µM); with Acinetobacter baumannii, 64 µg/mL (≈ 128 µM); in the assay on Enterococcus faecium it was 64 µg/mL (≈ 128 µM); with Escherichia coli, 64 µg/mL (≈ 128 µM). The minimal inhibitory concentration (MIC) with Staphylococcus aureus [2] amounted to 16 µg/mL (≈ 32 µM).
In the case of `N#Cc1ccc2ncc(C#N)c(CCC34CCC(NCc5ccc6c(n5)NC(=O)CO6)(CC3)CO4)c2n1`, the MIC in the assay with Pseudomonas aeruginosa worked out at 16 µg/mL (≈ 32.3 µM); in the assay with Streptococcus pneumoniae it was 1 µg/mL (≈ 2.02 µM); in the assay on Staphylococcus aureus [1], 0.125 µg/mL (≈ 0.252 µM); with Acinetobacter baumannii, 2 µg/mL (≈ 4.04 µM); in the assay with Enterococcus faecium, 4 µg/mL (≈ 8.07 µM); in the assay with Escherichia coli it was 8 µg/mL (≈ 16.1 µM). Besides, in the assay with Staphylococcus aureus [2], the MIC is 0.25 µg/mL (≈ 0.504 µM).
Turning to `Cc1nc2c(CCC34CCC(NCc5ccc6c(n5)NC(=O)CO6)(CC3)CO4)ccnc2cc1C#N`, the MIC with Pseudomonas aeruginosa, in the assay with Streptococcus pneumoniae, against Staphylococcus aureus [1], in the assay with Acinetobacter baumannii, in the assay on Enterococcus faecium and in the assay on Escherichia coli was 16 µg/mL (≈ 33 µM) throughout. For the same compound, the MIC with Staphylococcus aureus [2] turned out to be 16 µg/mL (≈ 33 µM).
In the case of `COc1nc2c(CCC34CCC(NCc5ccc6c(n5)NC(=O)CO6)(CC3)CO4)c(F)cnc2cc1C(F)(F)F`, the MIC in the assay on Pseudomonas aeruginosa, in the assay on Streptococcus pneumoniae, with Staphylococcus aureus [1], in the assay on Acinetobacter baumannii, in the assay with Enterococcus faecium and in the assay on Escherichia coli was 8 µg/mL (≈ 14.2 µM) throughout. Moreover, the MIC in the assay with Staphylococcus aureus [2] amounted to 8 µg/mL (≈ 14.2 µM).
Take `O=C1COc2ccc(CNC34CCC(CCc5c(F)cnc6ccc(C(=O)O)nc56)(CC3)OC4)nc2N1`: the MIC with Pseudomonas aeruginosa, in the assay on Streptococcus pneumoniae, against Staphylococcus aureus [1], with Acinetobacter baumannii, with Enterococcus faecium and in the assay on Escherichia coli was 16 µg/mL (≈ 31.5 µM) each time. The MIC with Staphylococcus aureus [2] worked out at 16 µg/mL (≈ 31.5 µM).
On to `COc1ccc2ncc(O)c(CCC34CCC(NCc5ccc6c(n5)NC(=O)CO6)(CC3)CO4)c2n1`, for which the minimal inhibitory concentration (MIC) in the assay with Pseudomonas aeruginosa amounted to 16 µg/mL (≈ 32.6 µM); in the assay on Streptococcus pneumoniae it was 0.5 µg/mL (≈ 1.02 µM); against Staphylococcus aureus [1] it was 0.031 µg/mL (≈ 0.0631 µM); with Acinetobacter baumannii, 2 µg/mL (≈ 4.07 µM); with Enterococcus faecium it was 2 µg/mL (≈ 4.07 µM); in the assay on Escherichia coli it was 4 µg/mL (≈ 8.14 µM). Besides, the MIC in the assay with Staphylococcus aureus [2] was 0.031 µg/mL (≈ 0.0631 µM).
Take `Cc1cc(C#N)nc2c(CCC34CCC(NCc5ccc6c(n5)NC(=O)CO6)(CC3)CO4)ccnc12`: the MIC in the assay on Pseudomonas aeruginosa came out at 64 µg/mL (≈ 132 µM); in the assay with Streptococcus pneumoniae it was 8 µg/mL (≈ 16.5 µM); against Staphylococcus aureus [1] it was 0.5 µg/mL (≈ 1.03 µM); in the assay on Acinetobacter baumannii it was 4 µg/mL (≈ 8.25 µM); in the assay with Enterococcus faecium it was 8 µg/mL (≈ 16.5 µM); in the assay with Escherichia coli, 16 µg/mL (≈ 33 µM). The MIC in the assay with Staphylococcus aureus [2] is 1 µg/mL (≈ 2.06 µM).
`O=C1COc2ccc(CNC34CCC(CCc5ccnc6cc(C(F)(F)F)cnc56)(CC3)OC4)nc2N1`: the MIC in the assay with Pseudomonas aeruginosa, with Streptococcus pneumoniae, against Staphylococcus aureus [1], in the assay with Acinetobacter baumannii, in the assay with Enterococcus faecium and with Escherichia coli was 64 µg/mL (≈ 125 µM) in each case. For the same compound, the MIC with Staphylococcus aureus [2] was 64 µg/mL (≈ 125 µM).
